Assay results: patent US20240418717A1, “APPARATUS AND METHOD FOR ANALYZING PLATELET AGGREGATION” (MEDTRONIC VASCULAR, INC., priority 2020, published 2024)

Assays:
[1] = tested on: platelets in platelet rich plasma (PRP); assay: Platelet aggregation by washer (disk) minimum position in platelet rich plasma; format: cell-based; conditions: platelet rich plasma containing 1.5 U/mL heparin; 20 micromolar ADP; relative to absence of ADP; FIG. 8
From the text: Platelet rich plasma (PRP) containing 1.5 U/mL heparin was filled into a six-channel cartridge similar to cartridge 200 depicted in and described regarding FIG. 7 for use with an analyzer similar to analyzer 300 depicted in and described regarding FIG. 6. The analyzer and cartridge were similar to those described in U.S. Pat. Nos. 5,629,209 and 6,613,286.
One chamber of the cartridge contained ADP such that the concentration in the chamber was 20 micromolar after introduction of the sample. Another chamber included no ADP. No other clot enhancing agent was in the sample or chamber of the cartridge. The chambers included a ferromagnetic washer. The cartridge was inserted in the analyzer before PRP sample fill. Immediately after the sample introduction, the test began, and platelet aggregation was analyzed.
The analyzer was programmed to hold the washer (disk) at the top of the chamber for 90 to 95% of the test cycle (a test cycle is the time sum of lift time and drop time), which was about 4.5 seconds for a test cycle of 5 seconds, to ensure platelets in the test sample aggregated and accumulated at the bottom of the chamber. The washer was allowed to drop (electromagnet deactivated), and the washer minimum position was determined by the proximity sensor (e.g., sensor 30 depicted in and described regarding FIGS. 2-5) in the presence and absence of ADP.

[2] = tested on: platelet poor plasma; assay: Platelet aggregation by washer (disk) minimum position in platelet poor plasma; format: cell-based; conditions: platelet poor plasma containing 1.5 U/mL heparin; 20 micromolar ADP; FIG. 9
From the text: Platelet poor plasma […] containing 1.5 U/mL heparin was filled into a six-channel cartridge similar to cartridge 200 depicted in and described regarding FIG. 7 for use with a blood analyzer similar to analyzer 300 depicted and described regarding FIG. 6. The analyzer and cartridge were similar to those described in U.S. Pat. Nos. 5,629,209 and 6,613,286. A chamber of the cartridge contained ADP such that the concentration in the chamber was 20 micromolar after introduction of the sample. No other clot enhancing agent was in the sample or chamber of the cartridge. The chambers included a ferromagnetic washer. Following introduction of the sample after the cartridge was inserted into the blood analyzer, the test was started, and platelet aggregation was analyzed. The blood analyzer was programmed to hold the washer (disk) at the top of the chamber for 90 to 95% of the test cycle (a test cycle is the time sum of lift time and drop time), which was about 4.5 seconds for a test cycle of 5 seconds, to ensure platelets in the test sample aggregated and accumulated at the bottom of the chamber. The washer was allowed to drop (electromagnet deactivated), and the washer minimum position was determined.

Nc1ncnc2c1ncn2[C@@H]1O[C@H](COP(=O)(O)OP(=O)(O)O)[C@@H](O)[C@H]1O [ADP, adenosine diphosphate]
washer (disk) minimum position (platelet aggregation) [1]: increased | disk minimal position (platelet aggregation) [2]: did not increase
